Measured values from ChEMBL document CHEMBL1614632, “Trend analysis of a database of intravenous pharmacokinetic parameters in humans for 670 drug compounds” (Drug Metab Dispos, 2008).
Bridge positions count the residues as written; N and C are the ends. Square brackets hold non-standard residues; d marks the D form. Peptide text beside a SMILES is read from it. hArg = N=C(N)NCCCC[C@H](N)C(=O)O; Mpa = O=C(O)CCS

Columns and labels:
clinical [1] = conditions: human, in vivo, iv, Vdss
clinical [2] = conditions: human, in vivo, iv, CL
clinical [3] = conditions: human, in vivo, iv
clinical [4] = conditions: human, in vivo, iv; remark: listed apart in the source
clinical [5] = conditions: human, in vivo, iv, t1/2

Row | SMILES | Vd (clinical [1]) [L/kg] | clearance (clinical [2]) [mL/min/kg] | fraction unbound (clinical [3]) | MRT (clinical [4]) [h] | half-life (clinical [5]) [h]
1 | CCN[C@@H](C)Cc1cccc(C(F)(F)F)c1 [DEXFENFLURAMINE] | 11 | 11 | 0.66 | 18 | 14
2 | Cc1cccc([C@H](C)c2cnc[nH]2)c1C [DEXMEDETOMIDINE] | 1.6 | 11 | 0.06 | 2.5 | 2.2
3 | C[C@@H](CN1CC(=O)NC(=O)C1)N1CC(=O)NC(=O)C1 [DEXRAZOXANE] | 0.55 | 3.1 | 1 | 3 | 2.5
4 | O=C(O)c1cc(-c2ccc(F)cc2F)ccc1O [DIFLUNISAL] | 0.097 | 0.1 | 0.0016 | 14 | 10
5 | CCC1CN2CCC1CC2[C@@H](O)c1ccnc2ccc(OC)cc12 (stereo not given in full) [DIHYDROQUINIDINE] | 2.8 | 4.2 | 0.22 | 11 | 5.7
6 | CCC(C)(C)NCC(O)COc1ccccc1C(=O)CCc1ccccc1 (stereo not given) [DIPRAFENONE] | 1.2 | 11 | 0.017 | 1.9 | 1.5
7 | CC(C)N(CCC(C(N)=O)(c1ccccc1)c1ccccn1)C(C)C (stereo not given) [DISOPYRAMIDE] | 0.52 | 0.9 | 0.16 | 9.6 | 7
8 | CC(=O)O[C@@]12CO[C@@H]1C[C@H](O)[C@@]1(C)C(=O)[C@H](O)C3=C(C)[C@@H](OC(=O)[C@H](O)[C@@H](NC(=O)OC(C)(C)C)c4ccccc4)C[C@@](O)([C@@H](OC(=O)c4ccccc4)[C@H]21)C3(C)C.O.O.O [DOCETAXEL] | 2.1 | 14 | 0.04 | 2.5 | 11
9 | COc1cc(CC2c3c(cc(OC)c(OC)c3OC)CC[N+]2(C)CCCOC(=O)CCC(=O)OCCC[N+]2(C)CCc3cc(OC)c(OC)c(OC)c3C2Cc2cc(OC)c(OC)c(OC)c2)cc(OC)c1OC (stereo not given) [DOXACURIUM] | 0.22 | 2.7 | 0.53 | 1.4 | 1.7
10 | CCCCCc1cc(O)c2c(c1)OC(C)(C)[C@@H]1CCC(C)=C[C@@H]21 [DRONABINOL] | 8.9 | 3.2 | 0.05 | 46 | 33
11 | CC(=O)[C@H]1CC[C@H]2[C@@H]3CC[C@@H]4C[C@H](O)CC[C@]4(C)[C@H]3CC[C@]12C [ELTANOLONE] | 2 | 22 | 0.01 | 1.5 | 4.7
12 | CCn1cc(C(=O)O)c(=O)c2cc(F)c(N3CCNCC3)nc21 [ENOXACIN] | 2 | 5.4 | 0.8 | 6.2 | 5.1
13 | CSc1ccc(C(=O)c2[nH]c(=O)[nH]c2C)cc1 [ENOXIMONE] | 1.8 | 29 | 0.3 | 1 | 1
14 | CCCn1c(=O)[nH]c(=O)c2[nH]cnc21 [ENPROFYLLINE] | 0.63 | 4 | 0.55 | 2.6 | 1.8
15 | N=C(N)NCCCC[C@@H]1NC(=O)CCSSC[C@@H](C(N)=O)NC(=O)[C@@H]2CCCN2C(=O)[C@H](Cc2c[nH]c3ccccc23)NC(=O)[C@H](CC(=O)O)NC(=O)CNC1=O [EPTIFIBATIDE] ([Mpa][hArg]GDWPC-NH2; disulfide 1-7) | 0.17 | 1.2 | 0.75 | 2.4 | 4.2
16 | CN1C[C@H](C(=O)N[C@]2(C)O[C@@]3(O)[C@@H]4CCCN4C(=O)[C@H](Cc4ccccc4)N3C2=O)C=C2c3cccc4[nH]cc(c34)C[C@H]21 [ERGOTAMINE] | 3.6 | 15 | 0.02 | 4 | 2.1
17 | CC[C@@H](CO)NCCN[C@@H](CC)CO [ETHAMBUTOL] | 1.7 | 10 | 0.18 | 2.7 | 3.1
18 | C#C[C@]1(O)CC[C@H]2[C@@H]3CCc4cc(O)ccc4[C@H]3CC[C@@]21C [ETHINYL ESTRADIOL] | 4.3 | 7 | 0.014 | 11 | 9.7
19 | Cc1ccc(-c2ncc(Cl)cc2-c2ccc(S(C)(=O)=O)cc2)cn1 [ETORICOXIB] | 1.5 | 0.79 | 0.081 | 32 | 26
20 | NC(N)=Nc1nc(CSCCC(N)=NS(N)(=O)=O)cs1 [FAMOTIDINE] | 1.2 | 6.6 | 0.84 | 3 | 2.8
21 | COc1ccc(Cl)cc1[C@]1(F)C(=O)Nc2cc(C(F)(F)F)ccc21 [FLINDOKALNER] | 10 | 15 | 0.0038 | 11 | 37

Row | SMILES | Vd (clinical [1]) [L/kg] | clearance (clinical [2]) [mL/min/kg] | fraction unbound (clinical [3]) | MRT (clinical [4]) [h] | half-life (clinical [5]) [h]
22 | Nc1nc(F)nc2c1ncn2[C@@H]1O[C@H](CO)[C@@H](O)[C@@H]1O [FLUDARABINE] | 2.2 | 3.2 | 0.76 | 12 | 11
23 | O=C1OC2(c3ccc(O)cc3Oc3cc(O)ccc32)c2ccccc21 [FLUORESCEIN] | 0.14 | 1.3 | 0.11 | 1.8 | 1.6
24 | CCC(=O)O[C@]1(C(=O)SCF)[C@H](C)C[C@H]2[C@@H]3C[C@H](F)C4=CC(=O)C=C[C@]4(C)[C@@]3(F)[C@@H](O)C[C@@]21C [FLUTICASONE PROPIONATE] | 3.6 | 17 | 0.1 | 3.9 | 6
25 | O=P(O)(O)OC(Cn1cncn1)(Cn1cncn1)c1ccc(F)cc1F [FOSFLUCONAZOLE] | 0.15 | 1.3 | 0.042 | 2 | 2.1
26 | Nc1ccn([C@@H]2O[C@H](CO)[C@@H](O)C2(F)F)c(=O)n1 [GEMCITABINE] | 1.5 | 32 | 1 | 0.81 | 1
27 | C#C[C@]1(O)C=C[C@H]2[C@@H]3CCC4=CC(=O)CC[C@@H]4[C@H]3CC[C@@]21CC [GESTODENE] | 0.46 | 0.8 | 0.023 | 9.6 | 10
28 | CN1C(=O)NC(=O)C(C)(C2=CCCCC2)C1=O (stereo not given) [HEXOBARBITAL] | 1.1 | 3.4 | 0.53 | 5.4 | 4.9
29 | NNc1nncc2ccccc12 [HYDRALAZINE] | 1.5 | 85 | 0.12 | 0.29 | 0.96
30 | CCN(CCO)CCCC(C)Nc1ccnc2cc(Cl)ccc12 (stereo not given) [HYDROXYCHLOROQUINE] | 700 | 11 | 0.57 | 1300 | 850
31 | CCCCCN(C)CCC(O)(P(=O)(O)O)P(=O)(O)O [IBANDRONIC ACID] | 0.55 | 1.8 | 0.15 | 5.1 | 14
32 | CC(=O)[C@]1(O)Cc2c(O)c3c(c(O)c2[C@@H](O[C@H]2C[C@H](N)[C@H](O)[C@H](C)O2)C1)C(=O)c1ccccc1C3=O [IDARUBICIN] | 38 | 24 | 0.076 | 26 | 16
33 | Nc1cc(-c2ccncc2)c[nH]c1=O [INAMRINONE] | 1.3 | 8.9 | 0.89 | 2.4 | 2
34 | CC1(C)C(/C=C/C=C/C=C/C=C2/N(CCCCS(=O)(=O)[O-])c3ccc4ccccc4c3C2(C)C)=[N+](CCCCS(=O)(=O)[O-])c2ccc3ccccc3c21.[Na+] [INDOCYANINE GREEN] | 0.035 | 6.8 | 0.05 | 0.086 | 0.065
35 | COc1ccc2c(c1)c(CC(=O)O)c(C)n2C(=O)c1ccc(Cl)cc1 [INDOMETHACIN] | 0.096 | 1.3 | 0.01 | 1.2 | 1.4
36 | O=C(NC1CCN(CCc2c[nH]c3ccccc23)CC1)c1ccccc1 [INDORAMIN] | 4.9 | 20 | 0.15 | 4.1 | 4.3
37 | CC(=O)N(CC(O)CO)c1c(I)c(C(=O)NCC(O)CO)c(I)c(C(=O)NCC(O)CO)c1I (stereo not given) [IOHEXOL] | 0.16 | 2 | 1 | 1.3 | 1.5
38 | C[C@H](O)C(=O)Nc1c(I)c(C(=O)NC(CO)CO)c(I)c(C(=O)NC(CO)CO)c1I [IOPAMIDOL] | 0.28 | 1.9 | 1 | 2.5 | 2.1
39 | COCC(=O)Nc1c(I)c(C(=O)NCC(O)CO)c(I)c(C(=O)N(C)CC(O)CO)c1I (stereo not given) [IOPROMIDE] | 0.22 | 1.4 | 0.99 | 2.6 | 2.6
40 | CCCCC1=NC2(CCCC2)C(=O)N1Cc1ccc(-c2ccccc2-c2nnn[nH]2)cc1 [IRBESARTAN] | 0.94 | 2.3 | 0.1 | 6.8 | 14
41 | CC(C)NCC(O)c1ccc(O)c(O)c1 (stereo not given) [ISOPROTERENOL] | 1.5 | 56 | 0.71 | 0.43 | 0.41
42 | COC(=O)C1=C(C)NC(C)=C(C(=O)OC(C)C)C1c1cccc2nonc12 (stereo not given) [ISRADIPINE] | 1.5 | 26 | 0.04 | 1 | 3.3
